Measured values as given in US20060079575A1, “Gamma-butyrolactone compound and pharmaceutical composition thereof” (priority 2003, published 2006).
Values after ≈ are worked out from the molar mass of the structure shown. Like-named read-outs stand apart in the source and are kept apart here.

Columns and labels:
[1] = system: Hep G2 (Hepatocellular carcinoma); test: MTT cytotoxicity assay, Hep G2; format: cell-based; details: Homo sapiens, HepG2, read-out: IC 50, HepG2; heading: IC 50, HepG2; 24 hr
Excerpt: (§1) MTT assay is used to test the cytotoxic effect of BS-AE, BS-ME, BS-HE, BS-CE and BS-WE on human lung cancer cell line A549. […] According to the extraction process “BS-AE→BS-MWE→BS-CE” all of the crude extracts contain tumor inhibitory components. In order to further isolate the tumor inhibitory components from Bupleurum scorzonerifolium extract, a “Chromatography” step is further employed to isolate the BS-CE.
(§2) It is known from the experimental result of this invention, BS-AE containing the γ-butyrolactone compound and pharmaceutical composition thereof have significant growth inhibitory effect on human hepatoma, lung cancer, ovarian cancer, breast cancer, malignant glioblastoma and colorectal carcinoma cells.

[2] = system: A549 (lung cancer cell line); test: MTT cytotoxicity assay, A549; format: cell-based, human; details: 24 hr
Excerpt: as §1, §2

A549-T12 cells [3] = test: MTT assay A549-T12, 24 and 48 hrs (FIG. 10); format: cell-based, human; details: Paclitaxel-resistant lung cancer cell line
Method: FIGS. 10A through to 10C illustrate results of MTT assays for A549-T12 cells treated with BS-AE, isochaihulactone (BS-8), and isokaerophyllin (BS-15) respectively for 24 hrs and 48 hrs;
Besides, after BS-AE, BS-8, and BS-15 are added to Paclitaxel-resistant lung cancer cell line for 48 hours, viability ratio of tumor cells is reduced as illustrated in FIGS. 10A through to 10C. So, in view of IC50 or ED50, the cytotoxic effect of purified chaihulactone analog on the tumor cells is […] than BS-AE. […] Furthermore, a substantially low dose (1.5 μg/ml) of the compound is all that requires to induce apoptosis for the tumor cells.

[4] = system: OVCAR-3 (ovarian cancer cell line); test: MTT cytotoxicity assay, OVCAR-3; format: cell-based; details: Homo sapiens, OVCAR-3, read-out: IC 50, OVCAR-3; 24 hr
Excerpt: as §1, §2

telomerase [5] = test: Inhibition of telomerase activity in Paclitaxel-resistant tumor cells; format: cell-based, human; details: Paclitaxel-resistant tumor cells (A549-T12)
Excerpt: Furthermore, after crude Bupleurum scorzonerifolium is processed according to the above-mentioned manufacturing method, its tumor inhibitory effect is more prominent.

A549 cells [6] = test: Cell cycle by flow cytometry, A549; format: cell-based, human
Excerpt: FIGS. 2A through to FIG. 2D illustrate the cell cycle peak change detected using flow cytometry for A549 cells treated with Bupleurum scorzonerifolium extracts: acetone extract (BS-AE), methanol extract (BS-ME) and water extract (BS-WE) isolated according to the extracting method of the invention;
FIG. 4 is a bar chart showing cell cycle changes detected using flow cytometry for A549 cells untreated, treated with BS-AE, isochaihulactone (BS-8), and Paclitaxel;
Furthermore, flow cytometry is employed to observe the changes in cell cycle before and after the addition of different extracts from Bupleurum scorzonerifolium to A549 cells. In FIGS. 2A through to 2D, X-axis represents chromosome numbers (2N, 4N, etc.) of tumor cells in contact with the antibody, Y-axis represents the fluorescent brightness of Fluorescein Isothiocyanate (FITC). […] This effect is most significant for BS-AE.

telomerase [7] = test: Telomerase activity of treated tumor cell lines; format: cell-based; details: cell lines of human lung cancer, hepatoma, malignant glioblastoma, colorectal carcinoma
Method: A prominent cytotoxic effect was shown when the γ-butyrolactone heterocyclic compound and pharmaceutical composition thereof are added to the Paclitaxel-resistant tumor cell lines, indicating Bupleurum scorzonerifolium indeed contain active components for inhibiting tumor growth. The active components for inhibiting tumor growth refer to the novel compound and pharmaceutical composition thereof having a γ-core and having a Z or E configuration for its carbon 2(5) location at the core.

[8] = system: MCF 7 (breast cancer cell line); test: MTT cytotoxicity assay, MCF 7; format: cell-based; details: Homo sapiens, MCF7, read-out: IC 50, MCF 7; 24 hr
Excerpt: as §1, §2

[9] = system: HT29 (colon cancer cell line); test: MTT cytotoxicity assay, HT29; format: cell-based, human; details: 24 hr
Excerpt: as §1, §2

A549-T12 cells [10] = test: Annexin V-FLOUS/PI flow cytometry (apoptosis), A549-T12; format: cell-based, human; details: A549-T12, 8 μg/ml, 48 hours; untreated 6.8%
Excerpt: FIGS. 9A through to 9D are cytograms showing the extent of cell apoptosis detected using flow cytometry for Paclitaxel-resistant human lung cancer cell lines (A549-T12 cells) either untreated, treated with BS-AE, isochalihulactone (BS-8), or isokaerophyllin ([…] fluorescence intensity of tumor cells bound with Annexin V-FLOUS antibodies; and Y-axis indicates fluorescence intensity of tumor cells bound with PI antibodies);
The following embodiments are described with Paclitaxel-resistant tumor cell A549-T12 (passage cultured from lung cancer cell line A549 cells with low concentration of Paclitaxel) as an example to test the effect of BS-AE and its pure compounds BS-8 and BS-15 (these represent isochaihulactone and chaihulactone analogues) on A549-T12 cells. Flow cytometry, drug toxicity test, and histological sections are adopted to evaluate cytotoxic effect of the γ-butyrolactone compound and pharmaceutical composition thereof on Paclitaxel-resistant tumor cells.
FIGS. 9A through to 9D are flow cytometry results illustrating a comparison of the change of Annexin V-FLOUS and PI for untreated group with that of the group treated with 100 nM of Paclitaxel, 30 μg/ml BS-AE, 8 μg/ml BS-8 and 8 μg/ml BS-15 to A549-T12. […]

[11] = system: J5 (hepatocellular carcinoma); test: MTT cytotoxicity assay, J5; format: cell-based; details: Homo sapiens, read-out: IC 50, J 5; heading: IC 50, J 5; 24 hr
Excerpt: as §1, §2

p21 and p53 = test: Western blotting of p21 and p53, A549; format: cell-based, human
Excerpt: FIG. 5 is a western blot analysis diagram showing the amount of tumor suppressors: p21 and p53 expressed in A 549 cells either untreated (B), treated with DMSO (D) or BS-AE, BS-ME, BS-WE, isochaihulactone (BS-1), or chaihulactone (BS-2) for 1 day (1D) or 3 days (3D);

[12] = system: DBTRG-05MG (glioblastoma multiforme); test: MTT cytotoxicity assay, DBTRG-05MG; format: cell-based; details: Homo sapiens, read-out: IC 50, DBTRG-05MG, 24 hr
Excerpt: as §1, §2

β-tubulin = test: Western blot of soluble and particular β-tubulin, A549; format: cell-based, human; details: A549, FIG. 7
Excerpt: FIG. 7 is a western blot analysis diagram showing expression of soluble (S) and particular (P) form of β-tubulin in A549 cells either untreated (C), treated with BS-AE, isochaihulactone (BS-8), Paclitaxel, or Vinblastine;
[…] is then used to analyze the change of cytoskeleton of tumor cell lines treated with Bupleurum scorzonerifolium extract. […] Then, a polymerization event is observed before and after the treatment of BS-AE.

A549 cells [13] = test: Annexin V-FLOUS/PI flow cytometry (apoptosis), A549; format: cell-based, human; details: A549, 20 μM, cultured 48 hours; untreated 3.8%
Method: FIGS. 3A through to FIG. 3C are cytograms showing the extent of cell apoptosis detected using flow cytometry for A 549 cells either untreated, treated with 20 μM of isochalihulactone, or 60 μg/ml of BS-AE and cultured for 48 hrs (wherein X-axis indicates fluorescence intensity of tumor cells bound with Annexin V-FLOUS antibodies; and Y-axis indicates fluorescence intensity of tumor cells bound with PI antibodies);
In the example of using cell line A549, untreated A549 cells, A549 cells treated with 20 μM of Isochaihulactone and A549 cells treated with 60 μg/ml of BS-AE are cultured 48 hours before utilizing flow cytometry to detect the staining results between Annexin V-FLOUS and PI. In FIGS. 3A through to 3C, X-axis represents the fluorescent brightness of tumor cells with antibody Annexin V-FLOUS, and Y-axis represents the fluorescent brightness of tumor cells with antibody PI.

[14] = system: A549-T12 (taxol resistant A549 subline); test: MTT cytotoxicity assay, A549-T12; format: cell-based, human; details: 24 hr
[15] = system: WI-38 (embryonic fibroblast cell line); test: MTT cytotoxicity assay, WI-38; format: cell-based; details: 24 hr

COc1cc(/C=C2\C(=O)OC[C@@H]2Cc2ccc3c(c2)OCO3)cc(OC)c1OC [BS-8, Isochaihulactone]
IC50 [1]: 5.5 ± 0.5 µg/mL (≈ 13.8 µM)
IC50 ([2]; Homo sapiens, A549, read-out: IC 50, A549): 8 ± 0.8 µg/mL
viability ratio of tumor cells (A549-T12 cells [3]): reduced
IC50 [4]: 7.2 ± 1.2 µg/mL (≈ 18.1 µM)
effective concentration for inhibiting telomerase activity (telomerase [5]): about 1.2 μg/mL
cell cycle effect (A549 cells [6]): arrest at G2/M stage
reduction of telomerase activity vs untreated control (telomerase [7]): 5 times
IC50 [8]: 8 ± 0.8 µg/mL (≈ 20.1 µM)
IC50 ([9]; Homo sapiens, HT-29, read-out: IC 50, HT 29, heading: IC 50, HT 29): 5 ± 0.8 µg/mL
tumor cells coupled to Annexin V (A549-T12 cells [10]): 30.6%
IC50 [11]: 3.5 ± 0.7 µg/mL (≈ 8.78 µM)
expression level of tumor suppressor p21 and p53 (p21 and p53): significant increase
IC50 [12]: 7.5 ± 1 µg/mL (≈ 18.8 µM)
particular form (polymerized β-microtubule) (β-tubulin): increases
soluble form (non-polymerized β-microtubule) (β-tubulin): significantly diminishes
tumor cells coupled to Annexin V (A549 cells [13]): 32.7%
IC50 ([14]; Homo sapiens, A549, read-out: IC 50, A549-T12, heading: IC 50, A549-T12): 1.7 ± 0.3 µg/mL

COc1ccc(/C=C2\C(=O)OC[C@@H]2Cc2ccc3c(c2)OCO3)cc1OC [BS-15, Isokaerophyllin]
viability ratio of tumor cells (A549-T12 cells [3]): reduced
tumor cells coupled to Annexin V (A549-T12 cells [10]): 23.1%

N.N.[Cl][Pt][Cl] [Cisplatin, cisdiammine dichloroplatinum]
IC 50, A549 [2]: 17200 ± 2700 µg/mL
IC 50, WI 38 [15]: 21300 ± 4500 µg/mL

COc1cc(/C=C2/C(=O)OC[C@@H]2Cc2ccc3c(c2)OCO3)cc(OC)c1OC [Component 3, Chaihulactone]
reduction of telomerase activity vs untreated control (telomerase [7]): 5 times
expression level of tumor suppressor p21 and p53 (p21 and p53): significant increase

paclitaxel [Taxol, reference compound]
IC50 ([2]; Taxol in nM, read-out: IC 50, A549): 4 ± 0.6 nM
IC50 ([9]; Taxol in nM, read-out: IC 50, HT 29): 3 ± 0.5 nM
IC50 ([14]; Taxol in nM, read-out: IC 50, A549-T12): 20 ± 2.7 nM
